According to US9695155B2, “Herbicidal substituted pyrimidinyloxy benzene compounds” (E. I. DU PONT DE NEMOURS AND COMPANY, priority 2013, dated 2017):

Tests used:
morningglory = assay: Test A preemergence; type: in vivo, Ipomoea spp.
How it was run: (§1)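 Scoring: eye-based comparison with untreated controls, 0 for no effect through 100 for complete control, at about day 10. Treatments: directed soil spray preemergence; foliar spray postemergence on 2–10 cm plants at the one- to two-leaf stage. Medium: loam soil with sand.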

chickweed = assay: Test C postemergence; type: in vivo, Stellaria media
How it was run: (§2)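 Seeds are planted in blended loam soil and sand and treated preemergence, while seedlings in a peat moss/vermiculite medium receive postemergence sprays at 2 to 18 cm height. All plants stay in the greenhouse for 13 to 15 days before visual comparison with controls on a 0–100 scale.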

barnyardgrass [1] = assay: Test B flooded paddy test; type: in vivo, Echinochloa crus-galli; details: Flood, 250 g ai/ha, 0 to 100 scale where 0 is no effect and 100 is complete control
How it was run: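 Seedlings are raised to two leaves, flooded to a depth of 3 cm and dosed by adding the compound to the floodwater. Water level is kept constant, and plants are scored visually versus controls 13–15 days later (0 = no effect, 100 = complete control).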

oilseed rape = assay: Test C preemergence; type: in vivo, Brassica napus; details: preemergence
How it was run: as §2

wheat = assay: Test A preemergence; type: in vivo, Triticum aestivum
How it was run: as §1

barnyardgrass [2] = assay: Test C preemergence; type: in vivo, Echinochloa crus-galli
How it was run: as §2

galium = assay: Test C preemergence; type: in vivo, Galium aparine
How it was run: as §2

corn = assay: Test A postemergence; type: in vivo, Zea mays; details: 0 to 100 scale where 0 is no effect and 100 is complete control
How it was run: as §1

wild oat = assay: Test C postemergence; type: in vivo, Avena fatua
How it was run: as §2

Italian ryegrass = assay: Test C preemergence; type: in vivo, Lolium multiflorum; details: preemergence
How it was run: as §2

barnyardgrass [3] = assay: Test A preemergence; type: in vivo, Echinochloa crus-galli; details: 0 to 100 scale where 0 is no effect and 100 is complete control
How it was run: as §1

velvetleaf = assay: Test A preemergence; type: in vivo, Abutilon theophrasti
How it was run: as §1

large (Lg) crabgrass = assay: Test C preemergence; type: in vivo, Digitaria sanguinalis
How it was run: as §2

soybean = assay: Test C preemergence; type: in vivo, Glycine max; details: preemergence
How it was run: as §2

[4] = 500 g ai/ha, 0 to 100 scale where 0 is no effect and 100 is complete control
[5] = 16 g ai/ha, postemergence, 0 is no effect, 100 is complete control
[6] = 31 g ai/ha, postemergence, visual rating, scale 0 to 100 (0 no effect, 100 complete control), 13 to 15 days
[7] = 125 g ai/ha, postemergence, visual rating, scale 0 to 100 (0 no effect, 100 complete control)
[8] = Postemergence, 62 g ai/ha, scale 0 to 100 (0 no effect, 100 complete control)
[9] = 16 g ai/ha, scale 0 to 100 (0 no effect, 100 complete control)
[10] = 62 g ai/ha, scale 0 (no effect) to 100 (complete control)
[11] = 125 g ai/ha, scale 0 (no effect) to 100 (complete control)
[12] = 16 g ai/ha, preemergence, scale 0 to 100 (0 no effect, 100 complete control)
[13] = 62 g ai/ha, preemergence, scale 0 (no effect) to 100 (complete control)
[14] = 125 g ai/ha, preemergence, scale 0 (no effect) to 100 (complete control)
[15] = Preemergence, 31 g ai/ha, scale 0 to 100, 0 no effect, 100 complete control

Compound: FC(F)(F)c1cnn(-c2c(Cl)cccc2Oc2ncc(Cl)cn2)c1 [Compound 167]
- Morningglory plant response rating (0 to 100 scale) (morningglory; 125 g ai/ha): 90
- Morningglory plant response rating (morningglory; [4]): 100
- Plant response rating (0 to 100), Chickweed (chickweed; [5]): 55
- Chickweed plant response rating (chickweed; [6]): 80
- Plant response rating, Chickweed (chickweed; [7]): 80
- Plant response rating, Chickweed (chickweed; [8]): 70
- Plant response rating, Barnyardgrass (barnyardgrass [1]): 35
- Oilseed Rape plant response rating (oilseed rape; [9]): 80
- Oilseed Rape plant response rating (oilseed rape; [10]): 90
- Oilseed Rape plant response rating (oilseed rape; [11]): 98
- Wheat plant response rating (0 to 100 scale) (wheat; 125 g ai/ha): 0
- Wheat plant response rating (wheat; [4]): 50
- Barnyardgrass plant response rating (barnyardgrass [2]; [12]): 5
- Barnyardgrass plant response rating (barnyardgrass [2]; [13]): 100
- Barnyardgrass plant response rating (barnyardgrass [2]; [14]): 100
- Plant response rating, Barnyardgrass (barnyardgrass [2]; [15]): 85
- Galium plant response rating (galium; [12]): 98
- Galium plant response rating (galium; [13]): 100
- Galium plant response rating (galium; [14]): 100
- Plant response rating, Galium (galium; [15]): 100
- Corn plant response rating (corn; 125 g ai/ha): 40
- Plant response rating, Corn (corn; 500 g ai/ha): 50
- Plant response rating (0 to 100), Oat, Wild (wild oat; [5]): 5
- Oat, Wild plant response rating (wild oat; [6]): 25
- Plant response rating, Oat, Wild (wild oat; [7]): 35
- Plant response rating, Oat, Wild (wild oat; [8]): 35
- Ryegrass, Italian plant response rating (Italian ryegrass; [9]): 5
- Ryegrass, Italian plant response rating (Italian ryegrass; [10]): 80
- Ryegrass, Italian plant response rating (Italian ryegrass; [11]): 90
- Plant response rating, Barnyardgrass (barnyardgrass [3]; 125 g ai/ha): 80
- Barnyardgrass plant response rating (barnyardgrass [3]; 500 g ai/ha): 100
- Velvetleaf plant response rating (0 to 100 scale) (velvetleaf; 125 g ai/ha): 80
- Velvetleaf plant response rating (velvetleaf; [4]): 100
- Crabgrass, Large plant response rating (large (Lg) crabgrass; [12]): 75
- Crabgrass, Large plant response rating (large (Lg) crabgrass; [13]): 100
- Crabgrass, Large plant response rating (large (Lg) crabgrass; [14]): 100
- Plant response rating, Crabgrass, Large (large (Lg) crabgrass; [15]): 98
- Soybean plant response rating (soybean; [9]): 10
- Soybean plant response rating (soybean; [10]): 90
- Soybean plant response rating (soybean; [11]): 90

Compound: FC(F)(F)COc1cnn(-c2ccccc2Oc2ncc(Cl)cn2)c1 [Compound 138, 5-chloro-2-[2-[4-(2,2,2-trifluoroethoxy)-1H-pyrazol-1-yl]phenoxy]pyrimidine]
- pest or weed control at 16 g/ha (chickweed; Stellaria media, post-emergence, 16 g ai/ha, postemergence, 0 is no effect, 100 is complete control, read-out: Plant response rating (0 to 100), Chickweed): 5%
- pest or weed control at 125 g/ha (chickweed; Stellaria media, post-emergence, 125 g ai/ha, postemergence, visual rating, scale 0 to 100 (0 no effect, 100 complete control), read-out: Plant response rating, Chickweed): 55%
- pest or weed control at 62 g/ha (chickweed; Stellaria media, post-emergence, Postemergence, 62 g ai/ha, scale 0 to 100 (0 no effect, 100 complete control), read-out: Plant response rating, Chickweed): 50%
- pest or weed control at 250 g/ha (barnyardgrass [1]; Echinochloa crus-galli, read-out: Plant response rating, Barnyardgrass): 0%
- plant injury at 16 g/ha (oilseed rape; Brassica napus, pre-emergence, 16 g ai/ha, scale 0 to 100 (0 no effect, 100 complete control), read-out: Oilseed Rape plant response rating): 80%
- plant injury at 62 g/ha (oilseed rape; Brassica napus, pre-emergence, 62 g ai/ha, scale 0 (no effect) to 100 (complete control), read-out: Oilseed Rape plant response rating): 100%
- plant injury at 125 g/ha (oilseed rape; Brassica napus, pre-emergence, 125 g ai/ha, scale 0 (no effect) to 100 (complete control), read-out: Oilseed Rape plant response rating): 100%
- pest or weed control at 16 g/ha (barnyardgrass [2]; Echinochloa crus-galli, pre-emergence, 16 g ai/ha, preemergence, scale 0 to 100 (0 no effect, 100 complete control), read-out: Barnyardgrass plant response rating): 10%
- pest or weed control at 62 g/ha (barnyardgrass [2]; Echinochloa crus-galli, pre-emergence, 62 g ai/ha, preemergence, scale 0 (no effect) to 100 (complete control), read-out: Barnyardgrass plant response rating): 65%
- pest or weed control at 125 g/ha (barnyardgrass [2]; Echinochloa crus-galli, pre-emergence, 125 g ai/ha, preemergence, scale 0 (no effect) to 100 (complete control), read-out: Barnyardgrass plant response rating): 95%
- pest or weed control at 31 g/ha (barnyardgrass [2]; Echinochloa crus-galli, pre-emergence, Preemergence, 31 g ai/ha, scale 0 to 100, 0 no effect, 100 complete control, read-out: Plant response rating, Barnyardgrass): 25%
- pest or weed control at 16 g/ha (galium; Galium, pre-emergence, 16 g ai/ha, preemergence, scale 0 to 100 (0 no effect, 100 complete control), read-out: Galium plant response rating): 90%
- pest or weed control at 62 g/ha (galium; Galium, pre-emergence, 62 g ai/ha, preemergence, scale 0 (no effect) to 100 (complete control), read-out: Galium plant response rating): 90%
- pest or weed control at 125 g/ha (galium; Galium, pre-emergence, 125 g ai/ha, preemergence, scale 0 (no effect) to 100 (complete control), read-out: Galium plant response rating): 100%
- pest or weed control at 31 g/ha (galium; Galium, pre-emergence, Preemergence, 31 g ai/ha, scale 0 to 100, 0 no effect, 100 complete control, read-out: Plant response rating, Galium): 90%
- plant injury at 125 g/ha (corn; Zea mays, post-emergence, 240 h, 125 g ai/ha, read-out: Corn plant response rating): 60%
- Corn plant response rating (crop injury, 0 = no effect, 100 = complete kill) at 500 g/ha (corn; Zea mays, post-emergence, 240 h, 500 g ai/ha): 90%
- pest or weed control at 16 g/ha (wild oat; Avena fatua, post-emergence, 16 g ai/ha, postemergence, 0 is no effect, 100 is complete control, read-out: Plant response rating (0 to 100), Oat, Wild): 5%
- pest or weed control at 125 g/ha (wild oat; Avena fatua, post-emergence, 125 g ai/ha, postemergence, visual rating, scale 0 to 100 (0 no effect, 100 complete control), read-out: Plant response rating, Oat, Wild): 10%
- pest or weed control at 62 g/ha (wild oat; Avena fatua, post-emergence, Postemergence, 62 g ai/ha, scale 0 to 100 (0 no effect, 100 complete control), read-out: Plant response rating, Oat, Wild): 5%
- pest or weed control at 16 g/ha (Italian ryegrass; Lolium multiflorum, pre-emergence, 16 g ai/ha, scale 0 to 100 (0 no effect, 100 complete control), read-out: Ryegrass, Italian plant response rating): 0%
- pest or weed control at 62 g/ha (Italian ryegrass; Lolium multiflorum, pre-emergence, 62 g ai/ha, scale 0 (no effect) to 100 (complete control), read-out: Ryegrass, Italian plant response rating): 20%
- pest or weed control at 125 g/ha (Italian ryegrass; Lolium multiflorum, pre-emergence, 125 g ai/ha, scale 0 (no effect) to 100 (complete control), read-out: Ryegrass, Italian plant response rating): 60%
- pest or weed control at 125 g/ha (barnyardgrass [3]; Echinochloa crus-galli, pre-emergence, 240 h, 125 g ai/ha, read-out: Plant response rating, Barnyardgrass): 80%
- pest or weed control at 500 g/ha (barnyardgrass [3]; Echinochloa crus-galli, pre-emergence, 240 h, 500 g ai/ha, read-out: Barnyardgrass plant response rating): 100%
- pest or weed control at 16 g/ha (large (Lg) crabgrass; Digitaria sanguinalis, pre-emergence, 16 g ai/ha, preemergence, scale 0 to 100 (0 no effect, 100 complete control), read-out: Crabgrass, Large plant response rating): 100%
- pest or weed control at 62 g/ha (large (Lg) crabgrass; Digitaria sanguinalis, pre-emergence, 62 g ai/ha, preemergence, scale 0 (no effect) to 100 (complete control), read-out: Crabgrass, Large plant response rating): 100%
- pest or weed control at 125 g/ha (large (Lg) crabgrass; Digitaria sanguinalis, pre-emergence, 125 g ai/ha, preemergence, scale 0 (no effect) to 100 (complete control), read-out: Crabgrass, Large plant response rating): 100%
- pest or weed control at 31 g/ha (large (Lg) crabgrass; Digitaria sanguinalis, pre-emergence, Preemergence, 31 g ai/ha, scale 0 to 100, 0 no effect, 100 complete control, read-out: Plant response rating, Crabgrass, Large): 90%
- plant injury at 16 g/ha (soybean; Glycine max, pre-emergence, 16 g ai/ha, scale 0 to 100 (0 no effect, 100 complete control), read-out: Soybean plant response rating): 20%
- plant injury at 62 g/ha (soybean; Glycine max, pre-emergence, 62 g ai/ha, scale 0 (no effect) to 100 (complete control), read-out: Soybean plant response rating): 90%
- plant injury at 125 g/ha (soybean; Glycine max, pre-emergence, 125 g ai/ha, scale 0 (no effect) to 100 (complete control), read-out: Soybean plant response rating): 90%
